# Measurements published in article PMC11211886 (Frontiers in Pharmacology, 2024).
# Where “and” joins values, the source holds several entries; their conditions need not be identical. Identical values can stand only once.
# Assays:
# [1] = Metabolic stability in human liver microsomes; assay type: in vitro ADME
# Method: (§1) FMO was deactivated by heating liver microsomes at 45°C for 5 min. […] The natural logarithm of the percentage of the drug remaining was plotted against the incubation time, and the slope of the linear regression (-k) was converted to in vitro half-lives (t1/2) using the following equation: […] (1) metabolic clearance is the major mechanism of clearance; (2) liver is the major organ of clearance; and (3) oxidation is the major metabolic pathway. CLint,in vitro=k / Cmicrosomes , Scaled CLint,in vivo=CLint,in vitro×microsomes yield×liver weight, where Cmicrosomes means the experimental protein concentration (0.5 mg/mL) in the incubation system. […] Then, the scaled in vivo intrinsic clearance was used to predict the systemic clearance (equal to the hepatic clearance) using the well-stirred venous equilibration model ([Houston, 1994]).
# [2] = Metabolic stability in dog liver microsomes; assay type: in vitro ADME; conditions: for CLint scaled at 1 µM / half-life at 1 µM: pH 7.4; for CLint scaled at 1 µM: read-out: Predicted CL int, iv vivo; for half-life at 1 µM: read-out: in vitro t1/2
# Method: as §1
# CYP3A4/5 = assay: Reversible CYP inhibition in HLM, CYP3A4/5 (testosterone, midazolam); assay type: in vitro ADME, human
# Method: The markers used to determine the activities of CYP isoforms were phenacetin O-deethylation for CYP1A2 (probe substrate: 50 µM phenacetin), bupropion hydroxylation for CYP2B6 (probe substrate: 70 µM bupropion), paclitaxel 6α-hydroxylation for CYP2C8 (probe substrate: 10 µM paclitaxel), diclofenac 4′-hydroxylation for CYP2C9 (probe substrate: 5 µM diclofenac), S-(+)-mephenytoin 4′-hydroxylation for CYP2C19 (probe substrate: 20 µM S-(+)-mephenytoin), dextromethorphan O-demethylation for CYP2D6 (probe substrate: 6 µM dextromethorphan), chlorzoxazone 6′-hydroxylation for CYP2E1 (probe substrate: 70 µM chlorzoxazone), and testosterone 6β-hydroxylation and midazolam 1′-hydroxylation for CYP3A4/5 (probe substrate: 45 µM testosterone and 5 µM midazolam). […] Alpha-naphthoflavone (0.04 µM), 2-phenyl-2-(1-piperidinyl)propane (5 µM), quercetin (1 µM), sulfaphenazole (0.5 µM), ticlopidine (4 µM), quinidine (0.2 µM), diethyldithiocarbamate (20 µM), and ketoconazole (0.05 µM) were used as positive inhibitors of CYP1A2, 2B6, 2C8, 2C9, 2C19, 2D6, 2E1, and 3A4, respectively. The vehicle control was prepared in the same composition as inhibitor solutions but free of inhibitors. The concentrations of probe substrates were close to Km values that were determined in-house and within the range recommended by the FDA ([Huang et al., 2007]). Reaction mixtures were incubated at 37°C for 5, 20, or 30 min, depending on the probe substrates of CYP isoforms. The reactions were terminated by adding cold acetonitrile containing IS, and the terminated incubation mixtures were centrifuged at 3,000 g for 10 min before LC-MS/MS analysis.
# CYP1A2 = assay: CYP induction in human hepatocytes, CYP1A2 enzyme activity
# Method: […] […] […] Enzyme activity for each CYP isoform was reported as a fold change over vehicle control and the percent of positive control (detailed calculation in Supplementary 1.1). Hepatocytes were harvested with a lysis buffer from RNeasy 96 Kit (Qiagen Inc., Germantown, MD, USA) to isolate RNA, which was analyzed by real-time quantitative polymerase chain reaction (RT-PCR). […] Emax (the maximal observed induction) and EC50 (the concentration that supports half-maximal induction) were estimated by non-linear regression of fold increase in CYP mRNA expression versus concentration plots.
# The fold of vehicle control and the percent of positive control were calculated with the formulas below:
# Fold of vehicle control = CYPs activity of test compound (or positive control) treated sample / CYPs activity of vehicle control treated sample
# % of positive control = [(fold change in treated sample)-1] / [(fold change in positive control)-1] × 100
# Based on the enzyme activity, a minimum of 2-fold increase compared to vehicle control for the positive control and ≥40% of the positive control for the test article was considered as the cutoff for a positive signal in in vitro induction assay.
# [3] = cited from earlier work
# [4] = Single-dose PK in ICR mice (IV/PO)
# [5] = FMO-deactivated liver microsomes, female dog liver microsomes, FMO deactivation
# [6] = FMO-deactivated liver microsomes, male dog liver microsomes, FMO deactivation
# [7] = female dog liver microsomes, normal
# [8] = male dog liver microsomes, normal
# [9] = male, ICR, mouse, in vivo, iv, 2.5 mg/kg
# [10] = male, ICR, mouse, in vivo, po, 10 mg/kg
structure (smiles),measurement,setting,value
C[C@H](Nc1ncnc(N)c1C#N)c1cc2ncc(Cl)n2nc1-c1ccccc1 [Amdizalisib],Predicted CL sys,"[1]; female human liver microsomes, FMO deactivation",5.07 mL/min/kg
same,CLint scaled at 1 µM,"[1]; female, human, microsomes, pH 7.4, Predicted CL int, iv vivo",5.78 mL/min/kg
same,half-life at 1 µM,"[1]; female, human, microsomes, pH 7.4, in vitro t1/2",2.32 h
same,parent drug remaining,"[1]; male, human, microsomes, 2 h, 1 µM, pH 7.4",> 80%
same,CLint scaled at 1 µM,[2]; [5],50.4 mL/min/kg
same,half-life at 1 µM,[2]; [5],0.66 h
same,CLint scaled at 1 µM,[2]; [6],19.9 mL/min/kg
same,half-life at 1 µM,[2]; [6],1.67 h
same,Predicted CL sys,"[2]; female dog liver microsomes, FMO deactivation",19.2 mL/min/kg
same,Predicted CL sys,[2]; [7],18.8 mL/min/kg
same,Predicted CL sys,"[2]; male dog liver microsomes, FMO deactivation",12.1 mL/min/kg
same,Predicted CL sys,[2]; [8],12.4 mL/min/kg
same,CLint scaled at 1 µM,[2]; [7],48.1 mL/min/kg
same,half-life at 1 µM,[2]; [7],0.692 h
same,CLint scaled at 1 µM,[2]; [8],20.7 mL/min/kg
same,half-life at 1 µM,[2]; [8],1.6 h
same,enzyme activity remaining,"CYP3A4/5; CYP3A4_Midazolam, 0.08 μM",93.8% and 105%
same,enzyme activity remaining,"CYP3A4/5; CYP3A4_Midazolam, 0.4 μM",106% and 103%
same,enzyme activity remaining,"CYP3A4/5; CYP3A4_Midazolam, 2 μM",103% and 100%
same,enzyme activity remaining,"CYP3A4/5; CYP3A4_Midazolam, 10 μM",99.4% and 101%
same,enzyme activity remaining,"CYP3A4/5; CYP3A4_Midazolam, 50 μM",89.1% and 86.3%
same,enzyme activity remaining,"CYP3A4/5; CYP3A4_Testosterone, 0.08 μM",101% and 99.4%
same,enzyme activity remaining,"CYP3A4/5; CYP3A4_Testosterone, 0.4 μM",86.1% and 90.5%
same,enzyme activity remaining,"CYP3A4/5; CYP3A4_Testosterone, 2 μM",89.9% and 94.3%
same,enzyme activity remaining,"CYP3A4/5; CYP3A4_Testosterone, 10 μM",83.5% and 84.8%
same,enzyme activity remaining,"CYP3A4/5; CYP3A4_Testosterone, 50 μM",86.7% and 69.0%
same,IC50,"CYP3A4/5; human, human liver microsomes, reversible, without pre-incubation",> 50 µM
same,Enzyme activity Percent of PC (%),"CYP1A2; CYP1A2, donor seven, 1 µM",1.00%
same,Enzyme activity Percent of PC (%),"CYP1A2; CYP1A2, donor seven, 3 µM",-12.5%
same,Enzyme activity Percent of PC (%),"CYP1A2; CYP1A2, donor seven, 10 µM",16.5%
same,Enzyme activity Percent of PC (%),"CYP1A2; CYP1A2, donor seven, 20 µM",9.00%
same,Enzyme activity Percent of PC (%),"CYP1A2; CYP1A2, donor seven, 30 µM",16.6%
same,Enzyme activity Percent of PC (%),"CYP1A2; CYP1A2, donor six, 1 µM",2.40%
same,Enzyme activity Percent of PC (%),"CYP1A2; CYP1A2, donor six, 3 µM",3.90%
same,Enzyme activity Percent of PC (%),"CYP1A2; CYP1A2, donor six, 10 µM",7.60%
same,Enzyme activity Percent of PC (%),"CYP1A2; CYP1A2, donor six, 20 µM",14.9%
same,Enzyme activity Percent of PC (%),"CYP1A2; CYP1A2, donor six, 30 µM",7.30%
same,Enzyme activity Percent of PC (%),"CYP1A2; CYP1A2, donor two, 1 µM",1.50%
same,Enzyme activity Percent of PC (%),"CYP1A2; CYP1A2, donor two, 3 µM",0.30%
same,Enzyme activity Percent of PC (%),"CYP1A2; CYP1A2, donor two, 10 µM",7.30%
same,Enzyme activity Percent of PC (%),"CYP1A2; CYP1A2, donor two, 20 µM",8.90%
same,Enzyme activity Percent of PC (%),"CYP1A2; CYP1A2, donor two, 30 µM",14.6%
same,induction of CYP1A2 enzyme activity,"CYP1A2; up to 30.0 µM, all three donors",not considered an inducer
same,maximal unbound plasma concentration at steady state,[3]; 30 mg QD in humans,~52.1 nM
same,observed human value (Vss/F),[3]; human,2.33 L/kg
same,reported human CLss/F,[3]; human,3.25 mL/min/kg
same,FPO,"[4]; ICR mouse, fasted, PO 10 mg/kg",101%
same,AUC(0-inf),[4]; [9],2830 ng·h/mL
same,AUC(0-t),[4]; [9],2700 ng·h/mL
same,MRT,[4]; [9],2.12 h
same,Vd,[4]; [9],1.87 L/kg
same,clearance,[4]; [9],14.7 mL/min/kg
same,half-life,[4]; [9],2.06 h
same,AUC(0-inf),[4]; [10],13700 ng·h/mL
same,AUC(0-t),[4]; [10],10900 ng·h/mL
same,Cmax,[4]; [10],3080 ng/mL
same,MRT,[4]; [10],4.91 h
same,half-life,[4]; [10],4.16 h
